Test results taken from PubChem BioAssay AID2060894 (Molecular Pharmacology Branch, DTP, NCI, 2025).

Test system: K12877-001-R-J1-PDC complex spheroid viability
Assay: Anticancer human tumor K12877-001-R-J1-PDC patient-derived lung adenocarcinoma cell line growth inhibition [RAS]
Conditions: for IC50: curve of first compound; for viability, T/C: stronger effect = lower value; active = viability on the fitted dose curve at most 10% of control; inactive = the rest
Source text: RAS pathway inhibitors in Combinations in Complex Spheroids
A high-throughput screen of multi-cell type tumor spheroids was designed to identify active combinations of RAS pathway inhibitors and targeted small molecules. Complex spheroids include a stromal component modeled by human endothelial cells (HUVEC) and fibroblasts modeled by human mesenchymal stem cells (MSCs). The concentration ranges selected for each drug and investigational agent were based upon clinically achievable concentrations if the clinical Cmax of the agent was known.
Compounds. The drugs and investigational agents: abemaciclib (NSC768073), cobimetinib (NSC768068), divarasib (GDC6063, NSC841802), docetaxel (NSC628503), GDC-1971 (RLY-1971, NSC841576), gemcitabine (NSC613327), inavolisib (NSC800729), ipatasertib (NSC767898), KB-0742 (NSC834161), MRTX-1133 (NSC836407), osimertinib (NSC779217), RMC-4630 (NSC839698), RMC-6236 (NSC851965), RMC-6291 (NSC852671), Ro-3306 (NSC812927), sapanisertib (NSC764658), SN-38 (NSC673596), staurosporine (NSC755774), SY5609 (NSC837396), and tovorafenib (DAY101, NSC766906), were obtained from the National Cancer Institute (NCI) Developmental Therapeutics Program Chemical Repository. The FDA-approved anticancer drug set is available from the NCI Developmental Therapeutics Program. […] The stock solutions were prepared in dimethyl sulfoxide (DMSO, Sigma-Aldrich, St. Louis, MO, cat. D2650) at 800-fold the tested concentration and stored at -70 degrees C prior to their use. All drugs and investigational agents were tested over a range starting from a high concentration at or near the clinical Cmax and decreasing in half-log increments. If the clinical Cmax for an agent had not been determined, the highest concentration tested was 10 microM.
Cell Culture. All cells were maintained in an incubator at 37 degrees C and 5% CO2 with 95% humidity. The PDC lines were cultured according to standard operating procedures established by the NCI PDMR. All PDCs were thawed and cultured in Matrigel-coated flasks prepared with a working solution of 1X Ham's F-12 nutrient mix, without supplementation (Invitrogen, Waltham, MA, cat. 11765054), 100 U/mL penicillin-streptomycin (Invitrogen, cat. 15140122), and 2.5% Matrigel (Corning Inc., Corning, NY, cat. 354248) for the first three passages. The 362531-283-R-J2-PDC and 782815-120-R-J1-PDC lines were cultured in 6C/Colon 1B media, which includes advanced DMEM/F-12 (Thermo Fisher Scientific, cat. 12634028), 10 mM HEPES (Thermo Fisher Scientific, cat. 15630080), 1X GlutaMAX supplement (Thermo Fisher Scientific, cat. 35050061), 0.1 mg/mL primocin (InvivoGen, San Diego, CA, cat. ant-pm-2), 10% defined fetal bovine serum, heat inactivated (HyClone Laboratories Inc., Logan, UT, cat. SH30070.03HI), 50% L-WRN conditioned media (ATCC, cat. CRL-3276), 1.25 mM N-Acetyl-L-cysteine (Sigma-Aldrich, cat. A9165), 10 mM nicotinamide (Sigma-Aldrich, cat. N0636), 1X B-27 supplement (Thermo Fisher Scientific, cat. 17504044), 1X N-2 supplement (Thermo Fisher Scientific, cat. 17502048), 50 ng/mL human EGF (Thermo Fisher Scientific, cat. PHG0311), and 10 microM Y-27632 dihydrochloride (Tocris Bioscience, cat. 1254). The K12877-001-R-J1-PDC line was cultured in 6I media, which includes all 6C/Colon 1B media plus 10 ng/mL human FGF-10 (PeproTech, cat. 100-26), 1 ng/mL human FGF-2 (PeproTech, cat. 100-18B), 1 µM prostaglandin E2 (Tocris Bioscience, cat. 2296), […] hydrocortisone (Sigma-Aldrich, cat. H4001), and […] bovine insulin (Sigma-Aldrich, cat. I6634). The K86415-001-R-J1-PDC line was cultured in 6D media, which includes all 6C/Colon 1B media components minus the L-WRN conditioned media. The 485176-168-R4-J1-PDC was cultured in PANC media, which includes all 6C/Colon 1B media plus 100 ng/mL human FGF-10 (PeproTech, cat. 100-26), 500 nM SB-431542 (Selleckchem, cat. S1067), and 10 nM gastrin (Tocris Bioscience, cat. 3006). […]
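Note: spheroids exposed to agents for one week before readout.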

NC1c2ccccc2OC12CCN(c1cnc3c(N4CCCc5ncccc54)n[nH]c3n1)CC2 (configuration not stated) + CCn1c(-c2cc(N3CCN(C)CC3)cnc2C(C)OC)c2c3cc(ccc31)-c1csc(n1)CC(NC(=O)C1CC1C)C(=O)N1CCCC(N1)C(=O)OCC(C)(C)C2
inactive: viability, T/C (second compound 0.000949 µM, first compound 0.0316 µM) 64.9% | viability, T/C (second compound 0.000949 µM, first compound 0.1 µM) 57.4% | viability, T/C (second compound 0.000949 µM, first compound 0.316 µM) 58% | viability, T/C (second compound 0.000949 µM, first compound 1 µM) 83.2% | viability, T/C (second compound 0.000949 µM, first compound 3.16 µM) 61.3% | viability, T/C (second compound 0.000949 µM, first compound 10 µM) 46.9% | viability, T/C (second compound 0.003 µM, first compound 0.0316 µM) 55.2% | viability, T/C (second compound 0.003 µM, first compound 0.1 µM) 72.1% | viability, T/C (second compound 0.003 µM, first compound 0.316 µM) 84.6% | viability, T/C (second compound 0.003 µM, first compound 1 µM) 82.2% | viability, T/C (second compound 0.003 µM, first compound 3.16 µM) 62.9% | viability, T/C (second compound 0.003 µM, first compound 10 µM) 46% | viability, T/C (second compound 0.00949 µM, first compound 0.0316 µM) 84.1% | viability, T/C (second compound 0.00949 µM, first compound 0.1 µM) 80% | viability, T/C (second compound 0.00949 µM, first compound 0.316 µM) 74.1% | viability, T/C (second compound 0.00949 µM, first compound 1 µM) 64.9% | viability, T/C (second compound 0.00949 µM, first compound 3.16 µM) 59.5% | viability, T/C (second compound 0.00949 µM, first compound 10 µM) 38.6% | viability, T/C (second compound 0.03 µM, first compound 0.0316 µM) 102% | viability, T/C (second compound 0.03 µM, first compound 0.1 µM) 97.1% | viability, T/C (second compound 0.03 µM, first compound 0.316 µM) 72.4% | viability, T/C (second compound 0.03 µM, first compound 1 µM) 64% | viability, T/C (second compound 0.03 µM, first compound 3.16 µM) 56.9% | viability, T/C (second compound 0.03 µM, first compound 10 µM) 34.2% | viability, T/C (second compound 0.0949 µM, first compound 0.0316 µM) 91.9% | viability, T/C (second compound 0.0949 µM, first compound 0.1 µM) 77.6% | viability, T/C (second compound 0.0949 µM, first compound 0.316 µM) 64.9% | viability, T/C (second compound 0.0949 µM, first compound 1 µM) 52.7% | viability, T/C (second compound 0.0949 µM, first compound 3.16 µM) 41.9% | viability, T/C (second compound 0.0949 µM, first compound 10 µM) 33% | viability, T/C (second compound 0.3 µM, first compound 0.0316 µM) 77.4% | viability, T/C (second compound 0.3 µM, first compound 0.1 µM) 67.7% | viability, T/C (second compound 0.3 µM, first compound 0.316 µM) 60% | viability, T/C (second compound 0.3 µM, first compound 1 µM) 49.3% | viability, T/C (second compound 0.3 µM, first compound 3.16 µM) 39.1% | viability, T/C (second compound 0.3 µM, first compound 10 µM) 26%
0.937 µM: IC50 (second compound 0.3 µM)
3.49 µM: IC50 (second compound 0.03 µM)
1.33 µM: IC50 (second compound 0.0949 µM)
> 10 µM: IC50 (second compound 0.000949 µM)
7.63 µM: IC50 (second compound 0.003 µM)
4.86 µM: IC50 (second compound 0.00949 µM)
